Laboratory results taken from patent publication US20210230179A1, “THIENO[2,3-B]PYRIDINE DERIVATIVES AS EPAC INHIBITORS AND THEIR PHARMACEUTICAL USES” (INSTITUT NATIONAL DE LA SANTE ET DE LA RECHERCHE MEDICALE …, priority 2018, published 2021).

Legend:
mice = details: single i.v. bolus 8 mg/kg 5 min before reperfusion; 45 min occlusion, 24 h reperfusion
Protocol: Statistical significance was determined by two-way ANOVA followed by Bonferroni post-test or t-test. *p<0.01, **p<0.01, ***p<0.001, versus indicated values
Mice were anesthetized with intraperitoneal ketamine (60 mg/kg) and xylazine (6 mg/kg), intubated and ventilated mechanically. Anesthesia was maintained throughout the chirurgical procedure with 1.5% isoflurane. Body temperature was maintained at 37° C. A left thoracotomy was performed in order to enable coronary artery occlusion with a 7-0 Prolene thread placed around the left coronary artery for 45 min, followed by 24 h of reperfusion. […] Myocardial ischemia was confirmed by the presence of regional cyanosis. Reperfusion was confirmed by visualization of a hyperemic response. At this point, the chest was closed in layers. 24 h after reperfusion, mice were anesthetized again, the coronary artery was reoccluded at the previous site, and the heart was excised after Evans blue perfusion. The area at risk and the infarct area were respectively determined by Evans blue and 2,3,5-triphenyltetrazolium chloride (TTC) staining. The area at risk was identified as the non-blue region and expressed as a percentage of the left ventricle weight. The infarcted area was identified as the TTC negative zone and expressed as a percentage of area at risk.

Epac2B = molecular target: T1, Epac2B (Homo sapiens, UniProt Q8WZA2); assay: Rap1-GTP in HEK293 cells transfected with Epac2B; type: cell-based; details: 20 μM, 30 min preincubation; S-220 50 μM, 10 min
T1 construct: expressed in transfected cells; host or cells: HEK293
T1 sequence (Q8WZA2 1-867 isoform Q8WZA2-3): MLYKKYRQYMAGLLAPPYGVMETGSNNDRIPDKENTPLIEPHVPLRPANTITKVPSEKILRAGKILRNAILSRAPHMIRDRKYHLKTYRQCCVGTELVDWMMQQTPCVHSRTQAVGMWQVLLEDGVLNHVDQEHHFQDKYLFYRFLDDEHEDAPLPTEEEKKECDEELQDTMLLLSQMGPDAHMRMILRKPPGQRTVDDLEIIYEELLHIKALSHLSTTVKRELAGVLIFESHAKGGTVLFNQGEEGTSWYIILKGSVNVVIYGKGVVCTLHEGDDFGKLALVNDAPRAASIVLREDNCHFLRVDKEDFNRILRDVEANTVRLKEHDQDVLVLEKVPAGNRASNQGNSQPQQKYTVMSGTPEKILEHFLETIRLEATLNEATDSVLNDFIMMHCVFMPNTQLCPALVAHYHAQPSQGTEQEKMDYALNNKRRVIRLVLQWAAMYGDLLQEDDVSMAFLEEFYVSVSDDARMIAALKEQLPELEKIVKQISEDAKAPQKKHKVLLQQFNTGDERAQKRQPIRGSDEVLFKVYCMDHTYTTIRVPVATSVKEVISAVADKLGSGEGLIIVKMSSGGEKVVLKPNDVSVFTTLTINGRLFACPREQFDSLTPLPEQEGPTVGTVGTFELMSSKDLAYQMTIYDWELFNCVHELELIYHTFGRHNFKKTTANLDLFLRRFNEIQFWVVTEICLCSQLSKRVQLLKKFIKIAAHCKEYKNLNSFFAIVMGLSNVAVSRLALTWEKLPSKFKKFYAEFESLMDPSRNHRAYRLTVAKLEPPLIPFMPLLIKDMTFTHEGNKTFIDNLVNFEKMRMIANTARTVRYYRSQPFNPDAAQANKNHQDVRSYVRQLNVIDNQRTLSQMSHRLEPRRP
Protocol: FIGS. 9-13. Amounts of Rap1-GTP (n=5 in each group, mean±S.E.M) were determined in HEK293 cells transfected with Epac1 (FIGS. 9-11), Epac2A (FIG. 12) or Epac2B (FIG. 13). Cells were preincubated or not with AM-001 (FIGS. 9, 12, and 13), AM-002 (FIG. 10) or AM-003 (FIG. 11) (20 μM, 30 min) and were then treated or not with 8-CPT-AM (10 μM for Epac1 activation and 20 μM for Epac2A activation) or S-220 (50 μM for Epac2B activation) for 10 min. ESI-05 was used as positive control of Epac2A inhibition. Representative immunoblots are shown. […], *[…], ***p<0.001, ****p<0.0001, versus indicated values, one way ANOVA, Bonferroni comparison test.
Human Embryonic Kidney cells line (HEK293): HEK293 cells were maintained is in minimal essential medium with FBS (10%) and penicillin-streptomycin (1%). All media, sera, and antibiotics used in cell culture were purchased from Invitrogen.
The human Epac1/Epac2 expression vector was a gift from Dr J. L. Bos. Cells were transfected using Lipofectamine 2000 (Invitrogen) according to the manufacturer's instructions. HEK293 cells were maintained in MEM with FBS (Foetal Bovine Serum; 10%) and penicillin-streptomycin (1%). All media, sera and antibiotics used in cell culture were purchased from Invitrogen (Cergy Pontoise, France). […]

`Nc1c(C(=O)Nc2ccc(F)cc2)sc2nc(-c3cccs3)cc(-c3ccccc3)c12` [AM-001, 3-amino-N-(4-fluorophenyl)-4-phenyl-6-(thiophen-2-yl)thieno[2,3-b]pyridine-2-carboxamide] was tested, and the “ratio of infarct size to area-at-risk” value (mice) was 36±3% and the “inhibition of the increase in Rap1-GTP induced by S-220” value (Epac2B) was “ineffective”.
